The values below come from patent US11939324B2, “Compounds for the treatment of epilepsy, neurodegenerative disorders and other CNS disorders” (reMYND N.V., priority 2017, dated 2024).

The subject of test [1] is M17-TAU P301L cells. The experiment in a line: TAU-induced toxicity: LDH leakage of retinoic acid incubated M17-TAU P301L cells. The note with it: for EC50: Homo sapiens, reduction of LDH activity of retinoic acid incubated M17-TAU P301L cells, read-out: EC50 (μg/ml) TAU-induced toxicity. It counts as cell-based, human. The source says: A TAU expression plasmid was constructed by sub-cloning the cDNA of human TAU-P301L (encoding for TAU with proline 301 substituted by a leucine residue) into mammalian expression vector pcDNA3.1 resulting in plasmid pcDNA3.1-TAU P301L. Plasmids pcDNA3.1 and pcDNA3.1-TAU P301L were transfected to human neuroblastoma cells ([…]; ATCC No. CRL-2267) and independent clonal lines with the plasmids stably integrated into the genome were selected. […] Expression of the TAU P301L genes in the cell lines was confirmed by Western analysis.
In degenerated or dead cells lactate dehydrogenase (LDH) leaks out of the cells into the extracellular environment due to a loss of plasma-membrane integrity. This principle was used to determine cytotoxicity by quantifying the level of leaked LDH into the growth medium relative to the sum of total LDH activity from living cells and dead cells.
The detailed method for determining cytotoxicity was as follows: From appropriate precultures of M17-3.1 and M17-TAU(P301L) cells were seeded at 2500 cells/cm2 in Optimem Reduced Serum without phenol red (Gibco, Cat. 31985-047) supplemented with 1% fetal calf serum, 1 mM sodium pyruvate, 1× non-essential amino acids, 500 μg/ml G418 0.5× antibiotic/antimycotic. After 3 hours of incubation at 37° C./5% CO2 1 volume of Optimem Reduced Serum (same as described above; except without fetal calf serum) supplemented with 2.5 μM all-trans retinoic acid (ATRA) was added. The cells were further incubated for 7 days. Subsequently, LDH activity was determined using Promega Cytotox 96 Non-Radioactive cytotoxicity assay, (Cat. G1780) according the supplier's instructions.
The M17-TAU P301L cell line made it possible to assess the ability of novel compounds to counteract TAU cytotoxicity. […] These measurements were used to calculate EC50 values.
Exemplary compounds of the present invention are shown in Table 1, with their chemical structure and their EC50 value (expressed in μg/ml) as determined from example 12 in the TAU-induced toxicity experiment.

Test [2] relates to M17-TAU P301L cells. The experiment in a line: Cytosolic calcium (Fura-2) in M17-TAU P301L cell model of calcium dyshomeostasis. It counts as cell-based. To be noted: Homo sapiens, Fura-2 340/380 nm ratio, read-out: EC50 value of lowering cytosolic Ca^2+. As to the method:
Cystosic calcium was measured by loading the cells with a medium containing Fura-2 AM (Sigma-Aldrich), a cell permeable fluorescent probe for Ca^2+. Fura-2-AM was dissolved in DMSO plus 20% Pluronic Acid (F-127) (Invitrogen) in a 1:1 ratio and diluted in medium to a final concentration of 0.5 μM. To this loading medium probenecid (Sigma-Aldrich) was added to a final concentration of 2.5 mM. Then, culture medium was replaced by loading medium and after incubation for 1 hour at 37° C. cells were washed twice and replaced with HBSS (Gibco) supplemented with 0.2% FBS and 0.02M HEPES. Next, changes in cytosolic calcium were measured using a FlexStation 3 microplate reader (Molecular Devices) and quantified ratiometric, by calculating changes in the amount of cytosolic Ca^2+ bound Fura-2 (fluorescence intensity at 340 nm) relative to the amount of Ca^2+ unbound Fura-2 (fluorescence intensity at 380 nm). Data was processed in SoftMax Pro 5.4.6 software (Molecular Devices).
In addition compounds were tested to lower the elevated cytosolic calcium levels. In the presence of the compounds these cytosolic calcium levels were decreased.
Compounds were tested to lower the elevated cytosolic Ca^2+ levels in the cell model of calcium dyshomeostasis (FIG. 1B) as described in example 10.
Exemplary compounds of the present invention are shown in Table 2, with their chemical structure and their EC50 value of lowering cytosolic Ca^2+ (expressed in μg/ml).

Structures are written as SMILES. ≈ marks a conversion by molar mass, not a printed value.

In the case of `O=C(NCCc1c[nH]c2ccc(F)cc12)c1cc(Cc2ccc(F)cc2F)on1` [Compound 1], the EC50 in the test with M17-TAU P301L cells [1] was determined as 0.002 µg/mL (≈ 5.01 nM); with M17-TAU P301L cells [2], 1 ng/mL. With `O=C(NCCc1c[nH]c2ccc(F)cc12)c1cc(Cc2ccc(F)c(F)c2)on1` [Compound 2], the results for the EC50 in the test on M17-TAU P301L cells [1] and in the test on M17-TAU P301L cells [2] were 0.002 µg/mL (≈ 5.01 nM) and 1.4 ng/mL, respectively.

With `O=C(NCCc1c[nH]c2ccc(F)cc12)c1cc(Cc2cc(F)cc(F)c2)on1` [Compound 3], the EC50 was 0.0021 µg/mL (≈ 5.26 nM) in the test with M17-TAU P301L cells [1] and 2.4 ng/mL with M17-TAU P301L cells [2].

`O=C(NCCc1c[nH]c2ccc(F)cc12)c1cc(Cc2ccc(F)cc2)on1` [Compound 4]: the EC50 worked out at 0.0022 µg/mL (≈ 5.77 nM) in the test with M17-TAU P301L cells [1] and 3.5 ng/mL in the test on M17-TAU P301L cells [2]. As to `O=C(NCCc1c[nH]c2ccc(F)cc12)c1cc(Cc2cccc(F)c2F)on1` [Compound 5], the EC50 in the test on M17-TAU P301L cells [1] stood at 0.0028 µg/mL (≈ 7.01 nM); with M17-TAU P301L cells [2], 7.1 ng/mL. `O=C(NCCc1c[nH]c2ccc(F)cc12)c1cc(Cc2ccccc2F)on1` [Compound 7]: the values for the EC50 in the test on M17-TAU P301L cells [1] and in the test on M17-TAU P301L cells [2] were 0.0043 µg/mL (≈ 11.3 nM) and 4.7 ng/mL, respectively. Consider `COC(=O)C1=C(C)NC(C)=C(C(=O)OC(C)C)C1c1cccc2nonc12` (stereo not shown) [isradepine, reference compound], for which the “toxicity (LDH leaked into the medium) of RA-incubated cells” value in the test on M17-TAU P301L cells [1] (FIG. 2, M17-TAU P301L cells with RA) is reported as “toxicity is reduced”.
